Assay results published in publication PMC7744269 (Bioorganic & medicinal chemistry, 2010).

Columns and labels:
[1] = target: T1, Ureaplasma parvum thymidine kinase (UpTK) (Ureaplasma parvum serovar 3, UniProt Q9PPP5); assay: Phosphate transfer assay with [γ-32P]-ATP; format: biochemical; settings: for Vmax values of UpTK, times lower than with AZT: compared with AZT
T1 sequence (Q9PPP5 1-223): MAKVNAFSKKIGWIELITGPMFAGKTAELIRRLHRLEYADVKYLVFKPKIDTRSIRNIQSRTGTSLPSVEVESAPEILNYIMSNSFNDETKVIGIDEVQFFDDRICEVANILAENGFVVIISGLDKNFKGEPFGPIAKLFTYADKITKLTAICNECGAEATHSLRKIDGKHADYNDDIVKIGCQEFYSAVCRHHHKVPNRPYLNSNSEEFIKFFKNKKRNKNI

[2] = test system: viruses (HIV, Vaccinia virus, Cowpox virus, etc.); settings: previously reported; cited from earlier work
[3] = target: T2, human thymidine kinase 1 (hTK1) (Homo sapiens, UniProt P04183); assay: IC50 determination, DE-81 filter paper [3H]-dThd assay, hTK1; format: biochemical
T2 sequence (P04183 1-234): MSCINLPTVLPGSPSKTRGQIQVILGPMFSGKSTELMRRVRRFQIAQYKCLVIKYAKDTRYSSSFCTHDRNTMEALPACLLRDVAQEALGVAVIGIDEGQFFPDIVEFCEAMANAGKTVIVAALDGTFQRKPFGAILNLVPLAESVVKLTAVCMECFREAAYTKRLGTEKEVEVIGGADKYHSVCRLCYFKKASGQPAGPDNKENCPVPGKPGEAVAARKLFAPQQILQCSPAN

| Structure (SMILES) | Phosphorylation with UpTK compared to hTK1 (relative activity) ([1]; UpTK vs hTK1) | Vmax values of UpTK, times lower than with AZT [1] | Antiviral activity [2] | Relative efficiency with UpTK ([1]; compared to dThd (set to 100%)) [%] | IC50 [3] [µM] |
| --- | --- | --- | --- | --- | --- |
| Cc1cn([C@H]2C[C@H](n3cc(-c4ccc(F)cc4)nn3)[C@@H](CO)O2)c(=O)[nH]c1=O [Compound 13, 3′-(4-(4-Fluorophenyl)-1,2,3-triazole-1-yl)-2′-deoxythymidine] | five times more potent with UpTK than hTK1 | 3–4 | devoid of significant antiviral activity | – | – |
| CCCc1cn([C@H]2C[C@H](n3cc(C)c(=O)[nH]c3=O)O[C@@H]2CO)nn1 [Compound 6, 3′-(4-Propyl-1,2,3-triazol-1-yl)-3′-deoxythymidine] | – | – | – | 1.6 | – |
| Cc1cn([C@H]2C[C@H](n3cc(-c4ccccn4)nn3)[C@@H](CO)O2)c(=O)[nH]c1=O [Compound 12, 3′-(4-(2-Pyridine)-1,2,3-triazole-1-yl)-2′-deoxythymidine] | – | 3–4 | devoid of significant antiviral activity | – | 40 to 50 |
| Cc1cn([C@H]2C[C@H](n3cc(-c4ccccc4)nn3)[C@@H](CO)O2)c(=O)[nH]c1=O [Compound 9, 3′-(4-Phenyl-1,2,3-triazol-1-yl)-3′-deoxythymidine] | – | 3–4 | devoid of significant antiviral activity | – | – |
| Cc1cn([C@H]2C[C@H](n3cc(CO)nn3)[C@@H](CO)O2)c(=O)[nH]c1=O [Compound 1, 3′-(4-Hydroxymethyl-1,2,3-triazol-1-yl)-3′-deoxythymidine] | – | – | devoid of significant antiviral activity | – | – |
